The results in this text go back to US12049439B2 (OrsoBio, Inc., priority 2018, dated 2024).

In the assay the test system is PC-3 cells. In words: PC-3 Oxygen Rate Consumption (OCR) Assay. Particulars: Homo sapiens, 0.05 h, medium with 2% FBS, OCR at 3-min post-injection normalized to % increase over DMSO-treated cells, concentration for half-maximal OCR increase, read-out: EC50-PC3-OCR-FBS-3min. The assay is classed as cell-based. The method, then:
PC-3 Oxygen Rate Consumption (OCR) Assay Procedure:
One day before the assay, PC-3 cells were seeded at 2.5×10^4 cells/160 μL/well in a 96-well XFe96 cell plate, part of a FlexPak containing a cell plate and a cartridge (Agilent, Sunnyvale, CA). The cells were incubated overnight at 37° C. in a 5% CO2 and 90% humidity incubator with F12K culture medium (ThermoFisher Scientific/Invitrogen, Grand Island, NY) containing 10% FBS and 1% penicillin/streptomycin. On the day of the assay, the cells were washed twice with 300 µL/well Medium A [XF assay medium (Agilent) supplemented 10 mM glucose, 1 mM pyruvate, and 2% fetal bovine serum (FBS)], and incubated with 175 µL/well Media A for 1 hr in a 37° C., non-CO2 incubator prior to the measurement of cellular respiration. Compounds of interests were prepared in 1:2 serial dilutions with 100% DMSO and then further diluted into 8× working stock with Media A prior to being loaded to Injection Port A on a XFe96 Analyzer (Agilent). Six replicates were used for each treatment. The cartridge was calibrated in the XFe96 Analyzer 30 minute prior to the measurement of cellular respiration. Basal levels of OCR were measured three times, each using a “3-minute mixing/3-minute measurement” program. The compound effect was measured immediately after compound injection from Injection Port A, and OCR was monitored continuously 10 times, each time using a “1-minute mixing/2-minute measurement” program for a total of 30 minutes post compound injection. The level of OCR at 3-min post-injection was normalized to % increase over DMSO-treated cells. The concentration of compound required to reach the half-maximal OCR increase was defined as EC50 Table 2 contains PC3 OCR EC50 values for the compounds disclosed.
Broadly, the EC50 is the midpoint of the concentration-response curve. Turning to `O=C(NC12CC(C(F)(F)F)(C1)C2)c1ccc(F)cc1NS(=O)(=O)c1ccc(S(=O)(=O)C2CC2)cc1` [Example 28, 2-((4-(cyclopropylsulfonyl)phenyl)sulfonamido)-4-fluoro-N-(3-(trifluoromethyl)bicyclo[1.1.1]pentan-1-yl)benzamide], the EC50 came out at 2.76 µM.
In the case of `O=C(NC12CC(C(F)(F)F)(C1)C2)c1ccc(C(F)(F)F)cc1NS(=O)(=O)c1ccc(N2CCCS2(=O)=O)cc1` [Example 29, 2-((4-(1,1-dioxidoisothiazolidin-2-yl)phenyl)sulfonamido)-4-(trifluoromethyl)-N-(3-(trifluoromethyl)bicyclo[1.1.1]pentan-1-yl)benzamide] it was 8.8 µM; in that of `CN(C)S(=O)(=O)c1ccc(S(=O)(=O)Nc2cc(C(F)(F)F)ccc2C(=O)NC23CC(c4ccccc4)(C2)C3)cc1` [Example 30, 2-((4-(N,N-dimethylsulfamoyl)phenyl)sulfonamido)-N-(3-phenylbicyclo[1.1.1]pentan-1-yl)-4-(trifluoromethyl)benzamide], 1.11 µM; in that of `O=C(NC12CC(c3ccccc3)(C1)C2)c1ccc(C(F)(F)F)cc1NS(=O)(=O)c1ccc(OC(F)(F)F)cc1` [Example 31, N-(3-phenylbicyclo[1.1.1]pentan-1-yl)-2-((4-(trifluoromethoxy)phenyl)sulfonamido)-4-(trifluoromethyl)benzamide], 0.595 µM.
The result for `N#CC12CC(NC(=O)c3ccc(C(F)(F)F)cc3NS(=O)(=O)c3ccc(OC(F)(F)F)cc3)(C1)C2` [Example 32, N-(3-cyanobicyclo[1.1.1]pentan-1-yl)-2-((4-(trifluoromethoxy)phenyl)sulfonamido)-4-(trifluoromethyl)benzamide] reads 1.52 µM; that for `O=C(NC12CC(C(F)(F)F)(C1)C2)c1ccc(C(F)(F)F)cc1NS(=O)(=O)c1ccc(S(=O)(=O)C(F)(F)F)cc1` [Example 33, 4-(trifluoromethyl)-N-(3-(trifluoromethyl)bicyclo[1.1.1]pentan-1-yl)-2-((4-((trifluoromethyl)sulfonyl)phenyl)sulfonamido)benzamide], 1.93 µM.
Turning to `O=C(NC12CC(C(F)(F)F)(C1)C2)c1ccc(C(F)(F)F)cc1NS(=O)(=O)c1ccc(S(=O)(=O)C(F)F)cc1` [Example 34, 2-((4-((difluoromethyl)sulfonyl)phenyl)sulfonamido)-4-(trifluoromethyl)-N-(3-(trifluoromethyl)bicyclo[1.1.1]pentan-1-yl)benzamide], the EC50 turned out to be 2.71 µM.
As to `N#CC12CC(NC(=O)c3ccc(C(F)(F)F)cc3NS(=O)(=O)c3ccc4ccccc4c3)(C1)C2` [Example 35, N-(3-cyanobicyclo[1.1.1]pentan-1-yl)-2-(naphthalene-2-sulfonamido)-4-(trifluoromethyl)benzamide], the EC50 was 1.21 µM.
In the case of `O=C(NC12CC(c3ccccc3)(C1)C2)c1ccccc1NS(=O)(=O)c1ccc(-n2ccnc2)cc1` [Example 36, 2-((4-(1H-imidazol-1-yl)phenyl)sulfonamido)-N-(3-phenylbicyclo[1.1.1]pentan-1-yl)benzamide] it was at least 20 µM; in that of `O=C(NC12CC(C1)C2)c1ccc(C(F)(F)F)cc1NS(=O)(=O)c1ccccc1` [Example 37, N-(bicyclo[1.1.1]pentan-1-yl)-2-(phenylsulfonamido)-4-(trifluoromethyl)benzamide], 2.1 µM; in that of `O=C(NC12CC(C(F)(F)F)(C1)C2)c1ccc(C(F)(F)F)cc1NS(=O)(=O)c1ccccc1` [Example 38, 2-(phenylsulfonamido)-4-(trifluoromethyl)-N-(3-(trifluoromethyl)bicyclo[1.1.1]pentan-1-yl)benzamide], 0.478 µM.
Take `Cn1cc(S(=O)(=O)Nc2cc(C(F)(F)F)ccc2C(=O)NC23CC(c4ccccc4)(C2)C3)cn1` [Example 39, 2-((1-methyl-1H-pyrazole)-4-sulfonamido)-N-(3-phenylbicyclo[1.1.1]pentan-1-yl)-4-(trifluoromethyl)benzamide]: the EC50 was found to be 7.34 µM.
For `N#CC12CC(NC(=O)c3ccc(C(F)(F)F)cc3NS(=O)(=O)c3c(Cl)cc(Cl)cc3Cl)(C1)C2` [Example 40, N-(3-cyanobicyclo[1.1.1]pentan-1-yl)-2-((2,4,6-trichlorophenyl)sulfonamido)-4-(trifluoromethyl)benzamide], the EC50 worked out at 6.58 µM.
Turning to `N#CC12CC(NC(=O)c3ccc(C(F)(F)F)cc3NS(=O)(=O)c3ccccc3)(C1)C2` [Example 41, N-(3-cyanobicyclo[1.1.1]pentan-1-yl)-2-(phenylsulfonamido)-4-(trifluoromethyl)benzamide], the EC50 was determined as 2.16 µM.
For the compound `CN(C)S(=O)(=O)c1ccc(S(=O)(=O)Nc2cc(C(F)(F)F)ccc2C(=O)NC23CC(C#N)(C2)C3)cc1` [Example 42, N-(3-cyanobicyclo[1.1.1]pentan-1-yl)-2-((4-(N,N-dimethylsulfamoyl)phenyl)sulfonamido)-4-(trifluoromethyl)benzamide], the EC50 was 27.5 µM.
In the case of `O=C(NC12CC(c3ccccc3)(C1)C2)c1ccc(C(F)(F)F)cc1NS(=O)(=O)c1ccc(-n2cnnn2)cc1` [Example 43, 2-((4-(1H-tetrazol-1-yl)phenyl)sulfonamido)-N-(3-phenylbicyclo[1.1.1]pentan-1-yl)-4-(trifluoromethyl)benzamide] it was 2.99 µM; in that of `O=C(NC12CC(c3ccccc3)(C1)C2)c1ccc(C(F)(F)F)cc1NS(=O)(=O)c1ccc(S(=O)(=O)C(F)F)cc1` [Example 44, 2-((4-((difluoromethyl)sulfonyl)phenyl)sulfonamido)-N-(3-phenylbicyclo[1.1.1]pentan-1-yl)-4-(trifluoromethyl)benzamide], 1.16 µM; in that of `CS(=O)(=O)c1ccc(S(=O)(=O)Nc2cc(C(F)(F)F)ccc2C(=O)NC23CCC(CC2)C3)cc1` [Example 45, N-(bicyclo[2.2.1]heptan-1-yl)-2-((4-(methylsulfonyl)phenyl)sulfonamido)-4-(trifluoromethyl)benzamide], 5.45 µM.
For `CS(=O)(=O)c1ccc(S(=O)(=O)Nc2cc(Br)ccc2C(=O)NC23CC(C(F)(F)F)(C2)C3)cc1` [Example 46, 4-bromo-2-((4-(methylsulfonyl)phenyl)sulfonamido)-N-(3-(trifluoromethyl)bicyclo[1.1.1]pentan-1-yl)benzamide], the EC50 was determined as 3.48 µM.
The result for `CS(=O)(=O)Nc1cc(Br)ccc1C(=O)NC12CC(C1)C2` [Example 47, N-(bicyclo[1.1.1]pentan-1-yl)-4-bromo-2-(methylsulfonamido)benzamide] reads 17.3 µM; that for `CS(=O)(=O)Nc1cc(Br)ccc1C(=O)NC12CC(C(F)(F)F)(C1)C2` [Example 48, 4-bromo-2-(methylsulfonamido)-N-(3-(trifluoromethyl)bicyclo[1.1.1]pentan-1-yl)benzamide], 5.81 µM.
In the case of `CS(=O)(=O)Nc1cc(Br)ccc1C(=O)NC12CC(c3ccccc3)(C1)C2` [Example 49, 4-bromo-2-(methylsulfonamido)-N-(3-phenylbicyclo[1.1.1]pentan-1-yl)benzamide] it was 4.99 µM; in that of `O=C(NC12CC(C1)C2)c1ccc(F)cc1NS(=O)(=O)C1CC1` [Example 50, N-(bicyclo[1.1.1]pentan-1-yl)-2-(cyclopropanesulfonamido)-4-fluorobenzamide], at least 100 µM; in that of `NC(=O)c1ccc(S(=O)(=O)Nc2cc(C(F)(F)F)ccc2C(=O)NC23CC(c4ccccc4)(C2)C3)cc1` [Example 51, 2-((4-carbamoylphenyl)sulfonamido)-N-(3-phenylbicyclo[1.1.1]pentan-1-yl)-4-(trifluoromethyl)benzamide], 28.8 µM.
The result for `NC(=O)c1ccc(S(=O)(=O)Nc2cc(C(F)(F)F)ccc2C(=O)NC23CC(C2)C3)cc1` [Example 52, N-(bicyclo[1.1.1]pentan-1-yl)-2-((4-carbamoylphenyl)sulfonamido)-4-(trifluoromethyl)benzamide] reads 200 µM; that for `NC(=O)c1ccc(S(=O)(=O)Nc2cc(C(F)(F)F)ccc2C(=O)NC23CC(C(F)(F)F)(C2)C3)cc1` [Example 53, 2-((4-carbamoylphenyl)sulfonamido)-4-(trifluoromethyl)-N-(3-(trifluoromethyl)bicyclo[1.1.1]pentan-1-yl)benzamide], 46.1 µM.
On to `CC(C)S(=O)(=O)Nc1cc(C(F)(F)F)ccc1C(=O)NC12CC(c3ccccc3)(C1)C2` [Example 54, 2-((1-methylethyl)sulfonamido)-N-(3-phenylbicyclo[1.1.1]pentan-1-yl)-4-(trifluoromethyl)benzamide], for which the EC50 came out at 1.22 µM.
On to `CC(C)S(=O)(=O)Nc1cc(C(F)(F)F)ccc1C(=O)NC12CC(C1)C2` [Example 55, N-(bicyclo[1.1.1]pentan-1-yl)-2-((1-methylethyl)sulfonamido)-4-(trifluoromethyl)benzamide], for which the EC50 is 6.32 µM.
As for `CC(C)S(=O)(=O)Nc1cc(C(F)(F)F)ccc1C(=O)NC12CC(C(F)(F)F)(C1)C2` [Example 56, 2-((1-methylethyl)sulfonamido)-4-(trifluoromethyl)-N-(3-(trifluoromethyl)bicyclo[1.1.1]pentan-1-yl)benzamide], the EC50 was 0.825 µM.
